Assays:
Experiment in all cases: relative cell growth vs untreated control (GI, NCI-DTP normalisation with time-zero) (fraction of control growth); higher = more growth / less inhibition
Conditions in all cases: concentration of partner 0 M, treatment time: 120 h
ASPC1 = system: ASPC1
Protocol: (§1)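 Cancer cell lines in 96-well plates were treated 48 h after seeding with M4076 (ATM inhibitor) and berzosertib (ATR inhibitor), alone or mixed, in 4-fold dilutions for 120 h. Protein was read by sulforhodamine B staining, background-subtracted and normalised NCI-DTP style to untreated control growth. Rows with one concentration equal to 0 are monotherapy.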

DU145 = system: DU145
Protocol: as §1

HL60 = system: HL60
Protocol: as §1

MDAMB436 = system: MDAMB436
Protocol: as §1

COLO205 = system: COLO205
Protocol: as §1

BXPC3 = system: BXPC3
Protocol: as §1

PANC1 = system: PANC1
Protocol: as §1

LOVO = system: LOVO
Protocol: as §1

A549 = system: A549
Protocol: as §1

MIAPACA2 = system: MIAPACA2
Protocol: as §1

CNCc1ccc(-c2cc(-c3nc(-c4ccc(S(=O)(=O)C(C)C)cc4)cnc3N)on2)cc1 [berzosertib] + COc1cc2ncc3c(c2cc1-c1cn(C)nc1C)n(-c1c(F)cncc1OC)c(=O)n3C [M4076]
relative cell growth
Conditions	A549	ASPC1	BXPC3	COLO205	DU145	HL60	LOVO	MDAMB436	MIAPACA2	PANC1
concentration of first compound 0.0195 µM	1.22	1.3	1.18	1.1	1.08	1.14	1.07	1.03	1.06	1.12
concentration of first compound 0.0781 µM	0.999	1.07	1.14	0.981	1.13	1.1	0.826	1.13	0.974	1.27
concentration of first compound 0.2 µM	0.464	0.344	0.588	0.622	1.03	0.809	0.211	0.673	0.661	0.892
concentration of first compound 0.313 µM	0.294	0.0569	0.34	0.353	0.825	0.53	0.0258	0.386	0.235	0.482
concentration of first compound 1.25 µM	0.0316	-0.0955	-0.112	0.114	-0.0103	0.0485	-0.0498	0.0232	0.0129	0.094
concentration of first compound 5 µM	-0.00795	-0.077	-0.0824	0.00456	-0.0587	-0.0133	-0.0599	-0.0352	-0.0366	-0.0643

From the supplement of paper PMC10721915
